Results as given in the CheMixHub viscosity set.
“And” between values parts separate entries of the source, which are not always exact repeats. Identical values can stand only once.

Assay: xn = mol fraction of the nth substance listed

ClC(Cl)(Cl)Cl + CO
Settings	viscosity [mPa·s]
298 K, 101.3 kPa, x1 = 0.1518	0.719
298 K, 101.3 kPa, x1 = 0.2927	0.809
298 K, 101.3 kPa, x1 = 0.4346	0.844
298 K, 101.3 kPa, x1 = 0.5445	0.874
298 K, 101.3 kPa, x1 = 0.6871	0.875
298 K, 101.3 kPa, x1 = 0.761	0.858
298 K, 101.3 kPa, x1 = 0.8784	0.867
298.15 K, 101 kPa, x2 = 0.0367	0.877
298.15 K, 101 kPa, x2 = 0.0708	0.871
298.15 K, 101 kPa, x2 = 0.0886	0.869
298.15 K, 101 kPa, x2 = 0.1063	0.865
298.15 K, 101 kPa, x2 = 0.2	0.858
298.15 K, 101 kPa, x2 = 0.2104	0.8395
298.15 K, 101 kPa, x2 = 0.2547	0.857
298.15 K, 101 kPa, x2 = 0.35	0.854
298.15 K, 101 kPa, x2 = 0.375	0.8288
298.15 K, 101 kPa, x2 = 0.4226	0.842
298.15 K, 101 kPa, x2 = 0.46	0.846
298.15 K, 101 kPa, x2 = 0.4787	0.839
298.15 K, 101 kPa, x2 = 0.5069	0.8105
298.15 K, 101 kPa, x2 = 0.55	0.831
298.15 K, 101 kPa, x2 = 0.5618	0.815
298.15 K, 101 kPa, x2 = 0.6107	0.807
298.15 K, 101 kPa, x2 = 0.6154	0.7666
298.15 K, 101 kPa, x2 = 0.6934	0.77
298.15 K, 101 kPa, x2 = 0.7057	0.7387
298.15 K, 101 kPa, x2 = 0.76	0.764
298.15 K, 101 kPa, x2 = 0.7826	0.7057
298.15 K, 101 kPa, x2 = 0.7853	0.719
298.15 K, 101 kPa, x2 = 0.83	0.702
298.15 K, 101 kPa, x2 = 0.8483	0.6886
298.15 K, 101 kPa, x2 = 0.88	0.665
298.15 K, 101 kPa, x2 = 0.9029	0.626
298.15 K, 101 kPa, x2 = 0.9057	0.6477
298.15 K, 101 kPa, x2 = 0.9065	0.6438
298.15 K, 101 kPa, x2 = 0.95	0.599
298.15 K, 101 kPa, x2 = 0.9555	0.5806
298.15 K, 101 kPa, x2 = 0.9571	0.5875
298.15 K, 101 kPa, x2 = 0.9616	0.577
298.15 K, 101 kPa, x2 = 0.9788	0.5672
303.15 K, 101 kPa, x1 = 0.0355	0.54
303.15 K, 101 kPa, x1 = 0.1574	0.594
303.15 K, 101 kPa, x1 = 0.2723	0.665
303.15 K, 101 kPa, x1 = 0.4653	0.71
303.15 K, 101 kPa, x1 = 0.6066	0.76
303.15 K, 101 kPa, x1 = 0.7506	0.766
303.15 K, 101 kPa, x1 = 0.901	0.78
303.15 K, 101 kPa, x2 = 0.0396	0.8187
303.15 K, 101 kPa, x2 = 0.0862	0.8054
303.15 K, 101 kPa, x2 = 0.1437	0.7973
303.15 K, 101 kPa, x2 = 0.2352	0.793
303.15 K, 101 kPa, x2 = 0.3077	0.7919
303.15 K, 101 kPa, x2 = 0.4129	0.7852
303.15 K, 101 kPa, x2 = 0.531	0.7677
303.15 K, 101 kPa, x2 = 0.6187	0.7443
303.15 K, 101 kPa, x2 = 0.6838	0.7184
303.15 K, 101 kPa, x2 = 0.824	0.6435
303.15 K, 101 kPa, x2 = 0.8821	0.6038
303.15 K, 101 kPa, x2 = 0.9292	0.5669
303.15 K, 101 kPa, x2 = 0.9728	0.5306
308.15 K, 101 kPa, x2 = 0.0367	0.764
308.15 K, 101 kPa, x2 = 0.0708	0.756
308.15 K, 101 kPa, x2 = 0.0886	0.755
308.15 K, 101 kPa, x2 = 0.1063	0.749
308.15 K, 101 kPa, x2 = 0.2547	0.738
308.15 K, 101 kPa, x2 = 0.4226	0.724
308.15 K, 101 kPa, x2 = 0.4787	0.72
308.15 K, 101 kPa, x2 = 0.5618	0.7
308.15 K, 101 kPa, x2 = 0.6107	0.691
308.15 K, 101 kPa, x2 = 0.6934	0.656
308.15 K, 101 kPa, x2 = 0.7853	0.619
308.15 K, 101 kPa, x2 = 0.9029	0.543
308.15 K, 101 kPa, x2 = 0.9616	0.502
313.15 K, 101 kPa, x1 = 0.0355	0.54
313.15 K, 101 kPa, x1 = 0.1574	0.594
313.15 K, 101 kPa, x1 = 0.2723	0.665
313.15 K, 101 kPa, x1 = 0.4653	0.71
313.15 K, 101 kPa, x1 = 0.6066	0.76
313.15 K, 101 kPa, x1 = 0.7506	0.766
313.15 K, 101 kPa, x1 = 0.901	0.78
313.15 K, 101.33 kPa, x2 = 0.105	0.7595
313.15 K, 101.33 kPa, x2 = 0.193	0.7624
313.15 K, 101.33 kPa, x2 = 0.303	0.75
313.15 K, 101.33 kPa, x2 = 0.35	0.7427
313.15 K, 101.33 kPa, x2 = 0.51	0.6955
313.15 K, 101.33 kPa, x2 = 0.68	0.6248
313.15 K, 101.33 kPa, x2 = 0.72	0.605
313.15 K, 101.33 kPa, x2 = 0.79	0.57
313.15 K, 101.33 kPa, x2 = 0.91	0.505
318 K, 101.3 kPa, x1 = 0.1527	0.5328
318 K, 101.3 kPa, x1 = 0.2949	0.6044
318 K, 101.3 kPa, x1 = 0.4375	0.6446
318 K, 101.3 kPa, x1 = 0.5566	0.6729
318 K, 101.3 kPa, x1 = 0.7077	0.69
318 K, 101.3 kPa, x1 = 0.8931	0.7164
318.15 K, 101 kPa, x2 = 0.0367	0.672
318.15 K, 101 kPa, x2 = 0.0708	0.664
318.15 K, 101 kPa, x2 = 0.0886	0.67
318.15 K, 101 kPa, x2 = 0.1063	0.657
318.15 K, 101 kPa, x2 = 0.2547	0.643
318.15 K, 101 kPa, x2 = 0.4226	0.63
318.15 K, 101 kPa, x2 = 0.4787	0.623
318.15 K, 101 kPa, x2 = 0.5618	0.607
318.15 K, 101 kPa, x2 = 0.6107	0.598
318.15 K, 101 kPa, x2 = 0.6934	0.57
318.15 K, 101 kPa, x2 = 0.7853	0.537
318.15 K, 101 kPa, x2 = 0.9029	0.476
318.15 K, 101 kPa, x2 = 0.9616	0.44
323.15 K, 101 kPa, x1 = 0.0355	0.51
323.15 K, 101 kPa, x1 = 0.1574	0.543
323.15 K, 101 kPa, x1 = 0.2723	0.612
323.15 K, 101 kPa, x1 = 0.4653	0.642
323.15 K, 101 kPa, x1 = 0.6066	0.682
323.15 K, 101 kPa, x1 = 0.7506	0.698
323.15 K, 101 kPa, x1 = 0.901	0.706

[Br-].[Li+] + O
viscosity
Settings	293.15 K	298.15 K	303.15 K	308.15 K	313.15 K	318.15 K	323.15 K
100 kPa, x1 = 0.018	–	1.019 mPa·s	0.916 mPa·s	0.832 mPa·s	0.764 mPa·s	0.705 mPa·s	0.656 mPa·s
100 kPa, x1 = 0.035	–	1.161 mPa·s	1.052 mPa·s	0.966 mPa·s	0.888 mPa·s	0.822 mPa·s	0.763 mPa·s
100 kPa, x1 = 0.058	–	1.307 mPa·s	1.185 mPa·s	1.084 mPa·s	0.998 mPa·s	0.922 mPa·s	0.857 mPa·s
100 kPa, x1 = 0.092	–	1.601 mPa·s	1.452 mPa·s	1.327 mPa·s	1.219 mPa·s	1.126 mPa·s	1.045 mPa·s
100 kPa, x1 = 0.129	–	2.164 mPa·s	1.972 mPa·s	1.806 mPa·s	1.662 mPa·s	1.536 mPa·s	1.427 mPa·s
100 kPa, x1 = 0.17	–	3.258 mPa·s	2.945 mPa·s	2.683 mPa·s	2.459 mPa·s	2.263 mPa·s	2.093 mPa·s
100 kPa, x1 = 0.206	–	5.202 mPa·s	4.669 mPa·s	4.221 mPa·s	3.841 mPa·s	3.512 mPa·s	3.225 mPa·s
100 kPa, x1 = 0.246	–	9.066 mPa·s	8.028 mPa·s	7.154 mPa·s	6.41 mPa·s	5.769 mPa·s	5.198 mPa·s
101 kPa, x1 = 0.0109	1.079 mPa·s	–	0.855 mPa·s	–	–	–	0.593 mPa·s
101 kPa, x1 = 0.0353	1.245 mPa·s	–	0.999 mPa·s	–	–	–	0.694 mPa·s
101 kPa, x1 = 0.0649	1.472 mPa·s	–	1.195 mPa·s	–	–	–	0.842 mPa·s
101 kPa, x1 = 0.1	1.8 mPa·s	1.6 mPa·s	1.44 mPa·s	–	1.18 mPa·s	–	–
101 kPa, x1 = 0.101	1.854 mPa·s	–	1.523 mPa·s	–	–	–	1.093 mPa·s
101 kPa, x1 = 0.12	2.11 mPa·s	1.86 mPa·s	1.66 mPa·s	–	1.38 mPa·s	–	–
101 kPa, x1 = 0.131	2.377 mPa·s	–	1.947 mPa·s	–	–	–	1.408 mPa·s
101 kPa, x1 = 0.14	2.35 mPa·s	2.08 mPa·s	1.89 mPa·s	–	1.57 mPa·s	–	–
101 kPa, x1 = 0.15	2.6 mPa·s	2.34 mPa·s	2.09 mPa·s	–	1.72 mPa·s	–	–
101 kPa, x1 = 0.16	3.12 mPa·s	2.79 mPa·s	2.48 mPa·s	–	–	–	–
101 kPa, x1 = 0.1711	3.648 mPa·s	–	2.957 mPa·s	–	–	–	2.093 mPa·s
101 kPa, x1 = 0.19	4.21 mPa·s	3.73 mPa·s	3.34 mPa·s	–	–	–	–
101 kPa, x1 = 0.2	3.54 mPa·s and 5.05 mPa·s	3.1 mPa·s and 4.45 mPa·s	2.77 mPa·s and 3.95 mPa·s	–	–	–	–
101 kPa, x1 = 0.22	–	5.61 mPa·s	5 mPa·s	–	–	–	–
101 kPa, x1 = 0.24	–	7.22 mPa·s	6.36 mPa·s	–	–	–	–
101 kPa, x1 = 0.25	–	9.43 mPa·s	8.1 mPa·s	–	–	–	–
